Data: patent US12419308B2, “Phenylpyrazole insecticide compounds and compositions” (priority 2023, dated 2025)

Assays:
[1] = Plasma concentration analysis in topically treated chickens; settings: Compound of Example 1 treatment, topical spray 7.5 mg/kg once daily
Description: To explore the therapeutic potential of the compounds of the present disclosure, live chickens with mite infestation (Dermanyssus gallinae) are treated topically with solutions of test compound, with Fipronil as a positive control. Test solutions are prepared by dissolving the test compound in a mixture of 2-butoxyethanol, ethanol, and water (7:2:1) to reach a final concentration of 0.25% (w/v).
The test solution is administered using a mechanical spray pump delivering 0.5 mL of solution per actuation. The test solution is sprayed over the entire surface of the animal's body from a distance of 10-20 centimeters, resulting in direct contact of the solution with the animal's skin. The dosage applied to each animal is 3 mL/kg, equivalent to 7.5 mg/kg (kg live weight). The dosage is achieved using six actuations of the spray per kg of body weight per day. The treatment is administered once daily for 5 days at 24 hours intervals. One animal is left untreated as a negative control.
Blood samples are taken from each animal before the first treatment (T=0), and at 24-hour intervals thereafter. Each egg produced after a treatment is collected for later analysis.
Plasma samples are derived from each blood sample using standard procedures immediately after blood collection. Plasma is stored frozen at −80° C. until the time of analysis. Samples are then thawed at room temperature and extraction is performed by solid phase extraction (SPE) (Strata-X 33. Polymeric Reversed Phase, 60 mg/3 mL, Phenomenex) on an aliquot of sample (100 μl) pretreated for protein precipitation with 300 μl of acetonitrile. After protein precipitation, the samples are well vortexed and then centrifuged (12000 rpm, 10 min, RT). Supernatant is collected and transferred to clean Falcon tubes and diluted with 3 ml of water. Strata-X columns are conditioned with 2 ml of methanol and with 2 ml of water. Samples are loaded after conditioning, and the columns are washed with 2 ml of water, and analytes are eluted with 2 nil of methanol, dried under nitrogen and then resuspended in 100 μl of acetonitrile for mass spectral analysis.
A Thermo Q-exactive mass spectrometer (Thermo Fisher Scientific, Waltham, MA) is used. The LC system, governed by Chromeleon X-press software, consists of a binary pump, a thermostated autosampler, and a column compartment, all Dionex Ultimate 3000 series modules (Thermo Fisher Scientific, Waltham, MA). A volume of 2 μL is injected for each sample. Chromatographic separation of analytes is conducted in reverse-phase chromatography. A Luna Omega 1.6 μm Polar (CIS, 2.1 mm×100 mm) is used, and the mobile phases are (A) water and (B) acetonitrile, both containing 0.1% v/v formic acid. […]
Plasma samples from Day 3 and Day 5 are analyzed.

[2] = tested on: Dermanyssus gallinae; test: Antiparasitic efficacy on live chickens with natural mite infestation; format: in vivo; settings: by day 5 of treatment; 0.25% (w/v) spray, 7.5 mg/kg once daily for 5 days
Description: Two animals are treated with the compound of Example 1, and two animals are treated with Fipronil, while one animal is left untreated as a negative control. The infestation by D. gallinae is monitored by checking the density of mites in particular areas of the animal's bodies (feet, legs, and wings), comparing pre-treatment levels of infestation to post-treatment levels.
When all pests have been eliminated, a 100% pest control capability was achieved. In the case of some chemical products, when the pest was not fully eliminated, the disinfestation capacity was measured by averaging the number of infesting organisms located in three distinct areas of the treated animals, at the beginning of the treatment, and at the end of the treatment.

[3] = tested on: adult worker honeybees, Apis mellifera L; test: Acute oral toxicity test in honeybees (OECD 213); format: in vivo
Description: Untreated 50% w/v sucrose solution with 0.2% of propanol-water solution (ratio 80%-20%) is used as a negative control.
The test item is diluted with aqueous sucrose solution 50% (w/v) to prepare the oral solutions. The bees used for the oral test are anesthetized with carbon dioxide for the time necessary to immobilize them and placed inside the test cages; 2 hours before the treatment they are starved. A volume of 200 μL (20 μL/bee) of treated diet is administered to each cage with a dispenser (e.g., a syringe without tip), weighed before and after filling.
The overall exposure period is 6 hours, during which consumption is monitored: the feeder is changed at the end of the six hours or once the treated diet has been consumed (usually within 3-4 hours). In both cases, the feeder is weighed and a new feeder with untreated 50% (w/v) sucrose solution is provided ad libitum, and the mean effective dose is calculated based on the actual consumption.

SMILES: N#Cc1nn(-c2c(Cl)cc(C(F)(F)F)cc2Cl)c2nc(O)cc(C(F)(F)F)c12 [Example 1, 1-(2,6-dichloro-4-(trifluoromethyl)phenyl)-6-hydroxy-4-(trifluoromethyl)-1H-pyrazolo[3,4-b]pyridine-3-carbonitrile]
- Plasma concentration of analyte ([1]; Chicken 3, 3 days): 0.01 ppm
- Plasma concentration of analyte ([1]; Chicken 3, 5 days): 0.03 ppm
- Plasma concentration of analyte ([1]; Chicken 4, 3 days): 0.7 ppm
- Plasma concentration of analyte ([1]; Chicken 4, 5 days): 1.2 ppm
- Chickens free of mites [2]: 100%
- % CM (4 hours) ([3]; group T1, dose 0.002 μg/bee): 0.0%
- % CM (24 hours) ([3]; group T1, dose 0.002 μg/bee): 0.0%
- % CM (48 hours) ([3]; group T1, dose 0.002 μg/bee): 0.0%
- % CM (4 hours) ([3]; group T2, dose 0.004 μg/bee): 0.0%
- % CM (24 hours) ([3]; group T2, dose 0.004 μg/bee): 19.2%
- % CM (48 hours) ([3]; group T2, dose 0.004 μg/bee): 17.4%
- % CM (4 hours) ([3]; group T3, dose 0.006 μg/bee): 0.0%
- % CM (24 hours) ([3]; group T3, dose 0.006 μg/bee): 15.4%
- % CM (48 hours) ([3]; group T3, dose 0.006 μg/bee): 13.0%
